Results reported in paper doi:10.1101/2023.03.24.534094v2 (biorxiv, 2023).
Where two headings read alike, the source gives them in different places. One block for each compound: values may come before it.

What was measured:
Assay in all cases: biochemical
NQO2A = target: T1, NQO2A (Homo sapiens, UniProt P16083)
T1 sequence (P16083 1-231): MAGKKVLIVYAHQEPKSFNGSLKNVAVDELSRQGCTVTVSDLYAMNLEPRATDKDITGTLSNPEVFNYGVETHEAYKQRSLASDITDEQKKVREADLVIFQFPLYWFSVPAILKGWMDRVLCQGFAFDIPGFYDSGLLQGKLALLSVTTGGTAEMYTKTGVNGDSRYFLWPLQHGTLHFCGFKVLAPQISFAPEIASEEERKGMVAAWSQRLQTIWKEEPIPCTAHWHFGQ

AKT3 = AKT3 (Homo sapiens, UniProt Q9Y243)
Sequence of AKT3 (Q9Y243 whole entry): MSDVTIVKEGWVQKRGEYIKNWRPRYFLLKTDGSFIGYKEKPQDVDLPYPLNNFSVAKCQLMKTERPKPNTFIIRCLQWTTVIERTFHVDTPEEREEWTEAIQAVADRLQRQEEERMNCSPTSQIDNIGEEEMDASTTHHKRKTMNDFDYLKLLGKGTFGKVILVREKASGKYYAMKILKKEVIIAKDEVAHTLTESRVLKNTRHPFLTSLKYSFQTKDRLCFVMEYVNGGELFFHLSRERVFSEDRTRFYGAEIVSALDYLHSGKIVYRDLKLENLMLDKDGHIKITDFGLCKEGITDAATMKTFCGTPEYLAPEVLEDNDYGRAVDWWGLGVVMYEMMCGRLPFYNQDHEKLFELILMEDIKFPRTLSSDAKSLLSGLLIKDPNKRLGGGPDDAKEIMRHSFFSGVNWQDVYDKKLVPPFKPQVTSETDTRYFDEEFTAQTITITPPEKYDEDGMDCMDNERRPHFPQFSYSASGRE

EpHA4 = EpHA4 (Homo sapiens, UniProt P54764)
FGFR1 = FGFR1 (Homo sapiens, UniProt P11362)
CASK = target: T2, CASK (Homo sapiens, UniProt O14936)
T2 sequence (O14936 1-926): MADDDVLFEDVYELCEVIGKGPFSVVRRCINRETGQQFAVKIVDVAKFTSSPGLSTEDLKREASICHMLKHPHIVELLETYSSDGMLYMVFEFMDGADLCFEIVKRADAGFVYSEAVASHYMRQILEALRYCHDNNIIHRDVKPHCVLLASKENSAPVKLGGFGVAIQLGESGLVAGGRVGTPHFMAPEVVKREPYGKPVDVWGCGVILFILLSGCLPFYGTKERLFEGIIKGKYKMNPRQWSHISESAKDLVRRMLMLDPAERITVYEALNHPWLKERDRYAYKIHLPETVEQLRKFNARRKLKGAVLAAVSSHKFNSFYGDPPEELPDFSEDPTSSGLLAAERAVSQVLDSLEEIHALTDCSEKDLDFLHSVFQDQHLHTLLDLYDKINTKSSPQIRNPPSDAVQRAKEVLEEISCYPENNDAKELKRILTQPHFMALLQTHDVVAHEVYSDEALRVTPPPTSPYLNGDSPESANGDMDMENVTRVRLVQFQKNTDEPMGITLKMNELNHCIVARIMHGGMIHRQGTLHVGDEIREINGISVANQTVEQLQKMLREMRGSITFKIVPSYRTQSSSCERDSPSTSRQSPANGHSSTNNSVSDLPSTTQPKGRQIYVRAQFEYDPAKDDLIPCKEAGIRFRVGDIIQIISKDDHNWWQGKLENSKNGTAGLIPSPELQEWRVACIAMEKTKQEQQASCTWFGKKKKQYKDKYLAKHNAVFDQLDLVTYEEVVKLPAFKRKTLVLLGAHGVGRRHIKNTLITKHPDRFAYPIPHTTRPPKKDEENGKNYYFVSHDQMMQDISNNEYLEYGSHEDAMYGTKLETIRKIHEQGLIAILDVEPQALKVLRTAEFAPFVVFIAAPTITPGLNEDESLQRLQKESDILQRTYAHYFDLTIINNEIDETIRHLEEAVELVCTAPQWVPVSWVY

FES = FES (Homo sapiens, UniProt P07332)
Sequence of FES (P07332 whole entry): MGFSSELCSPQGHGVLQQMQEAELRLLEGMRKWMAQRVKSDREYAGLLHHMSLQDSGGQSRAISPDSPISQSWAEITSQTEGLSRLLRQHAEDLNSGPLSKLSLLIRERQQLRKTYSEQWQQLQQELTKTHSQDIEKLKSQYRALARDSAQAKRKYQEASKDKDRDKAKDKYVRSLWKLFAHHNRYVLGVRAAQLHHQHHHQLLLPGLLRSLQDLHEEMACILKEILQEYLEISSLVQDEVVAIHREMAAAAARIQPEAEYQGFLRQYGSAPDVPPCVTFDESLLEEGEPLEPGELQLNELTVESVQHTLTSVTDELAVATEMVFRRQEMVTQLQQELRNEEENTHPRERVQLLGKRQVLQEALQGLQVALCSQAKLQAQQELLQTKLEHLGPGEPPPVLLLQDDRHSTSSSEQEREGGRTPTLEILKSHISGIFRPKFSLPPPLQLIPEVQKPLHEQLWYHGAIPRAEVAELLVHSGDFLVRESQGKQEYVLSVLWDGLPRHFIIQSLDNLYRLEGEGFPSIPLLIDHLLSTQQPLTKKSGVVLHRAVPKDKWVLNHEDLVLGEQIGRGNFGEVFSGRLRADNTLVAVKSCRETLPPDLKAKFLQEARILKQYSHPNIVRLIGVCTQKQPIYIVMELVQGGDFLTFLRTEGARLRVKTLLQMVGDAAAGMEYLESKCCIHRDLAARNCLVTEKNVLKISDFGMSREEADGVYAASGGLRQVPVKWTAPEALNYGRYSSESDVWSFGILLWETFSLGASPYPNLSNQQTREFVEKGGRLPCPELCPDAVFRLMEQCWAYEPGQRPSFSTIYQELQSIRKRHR

JNK3 = JNK3 (Homo sapiens, UniProt P53779)
Sequence of JNK3 (P53779 whole entry): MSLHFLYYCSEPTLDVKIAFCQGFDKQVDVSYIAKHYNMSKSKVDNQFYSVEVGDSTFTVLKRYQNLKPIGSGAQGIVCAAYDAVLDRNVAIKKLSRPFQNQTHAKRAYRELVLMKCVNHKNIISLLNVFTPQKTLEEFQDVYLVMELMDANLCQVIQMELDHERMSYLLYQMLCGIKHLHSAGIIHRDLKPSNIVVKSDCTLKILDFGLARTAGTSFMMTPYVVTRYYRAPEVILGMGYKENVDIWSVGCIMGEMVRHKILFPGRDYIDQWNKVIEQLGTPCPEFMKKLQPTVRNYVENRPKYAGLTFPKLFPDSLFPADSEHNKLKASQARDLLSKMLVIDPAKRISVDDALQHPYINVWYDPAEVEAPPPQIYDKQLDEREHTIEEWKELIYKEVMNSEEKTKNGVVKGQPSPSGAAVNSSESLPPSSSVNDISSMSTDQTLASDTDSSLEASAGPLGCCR

BIKE = BIKE (Homo sapiens, UniProt Q9NSY1)
Sequence of BIKE (Q9NSY1 whole entry): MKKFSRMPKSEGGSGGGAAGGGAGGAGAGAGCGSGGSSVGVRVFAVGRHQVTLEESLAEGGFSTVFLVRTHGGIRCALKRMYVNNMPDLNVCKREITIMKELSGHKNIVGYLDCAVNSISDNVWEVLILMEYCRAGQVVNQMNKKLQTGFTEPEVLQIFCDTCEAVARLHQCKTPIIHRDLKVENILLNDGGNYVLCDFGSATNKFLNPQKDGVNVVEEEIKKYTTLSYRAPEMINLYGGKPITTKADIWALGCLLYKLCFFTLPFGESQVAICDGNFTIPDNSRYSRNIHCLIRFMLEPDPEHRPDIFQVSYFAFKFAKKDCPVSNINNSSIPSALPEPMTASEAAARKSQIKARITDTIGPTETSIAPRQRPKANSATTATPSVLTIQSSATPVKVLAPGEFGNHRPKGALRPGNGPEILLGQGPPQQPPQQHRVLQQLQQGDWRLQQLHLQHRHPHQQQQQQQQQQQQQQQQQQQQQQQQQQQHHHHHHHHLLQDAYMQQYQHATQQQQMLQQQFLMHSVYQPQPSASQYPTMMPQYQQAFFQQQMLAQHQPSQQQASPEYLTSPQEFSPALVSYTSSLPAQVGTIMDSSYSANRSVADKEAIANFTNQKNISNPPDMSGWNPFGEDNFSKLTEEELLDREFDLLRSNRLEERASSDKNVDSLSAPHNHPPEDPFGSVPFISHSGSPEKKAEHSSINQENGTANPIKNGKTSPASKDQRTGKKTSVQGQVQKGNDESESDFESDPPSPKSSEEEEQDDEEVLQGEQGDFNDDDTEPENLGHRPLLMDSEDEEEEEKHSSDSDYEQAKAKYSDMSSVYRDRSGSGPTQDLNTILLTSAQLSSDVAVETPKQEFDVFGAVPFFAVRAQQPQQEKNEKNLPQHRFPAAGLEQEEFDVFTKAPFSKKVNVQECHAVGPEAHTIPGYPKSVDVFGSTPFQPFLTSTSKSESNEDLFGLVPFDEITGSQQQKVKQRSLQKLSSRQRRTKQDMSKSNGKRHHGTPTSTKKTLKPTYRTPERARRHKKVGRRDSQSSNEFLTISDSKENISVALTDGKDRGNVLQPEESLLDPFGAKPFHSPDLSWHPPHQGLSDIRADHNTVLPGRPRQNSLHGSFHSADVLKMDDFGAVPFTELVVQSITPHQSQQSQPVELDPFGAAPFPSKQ

MSK1b = MSK1b (Homo sapiens, UniProt O75582)
Sequence of MSK1b (O75582 whole entry): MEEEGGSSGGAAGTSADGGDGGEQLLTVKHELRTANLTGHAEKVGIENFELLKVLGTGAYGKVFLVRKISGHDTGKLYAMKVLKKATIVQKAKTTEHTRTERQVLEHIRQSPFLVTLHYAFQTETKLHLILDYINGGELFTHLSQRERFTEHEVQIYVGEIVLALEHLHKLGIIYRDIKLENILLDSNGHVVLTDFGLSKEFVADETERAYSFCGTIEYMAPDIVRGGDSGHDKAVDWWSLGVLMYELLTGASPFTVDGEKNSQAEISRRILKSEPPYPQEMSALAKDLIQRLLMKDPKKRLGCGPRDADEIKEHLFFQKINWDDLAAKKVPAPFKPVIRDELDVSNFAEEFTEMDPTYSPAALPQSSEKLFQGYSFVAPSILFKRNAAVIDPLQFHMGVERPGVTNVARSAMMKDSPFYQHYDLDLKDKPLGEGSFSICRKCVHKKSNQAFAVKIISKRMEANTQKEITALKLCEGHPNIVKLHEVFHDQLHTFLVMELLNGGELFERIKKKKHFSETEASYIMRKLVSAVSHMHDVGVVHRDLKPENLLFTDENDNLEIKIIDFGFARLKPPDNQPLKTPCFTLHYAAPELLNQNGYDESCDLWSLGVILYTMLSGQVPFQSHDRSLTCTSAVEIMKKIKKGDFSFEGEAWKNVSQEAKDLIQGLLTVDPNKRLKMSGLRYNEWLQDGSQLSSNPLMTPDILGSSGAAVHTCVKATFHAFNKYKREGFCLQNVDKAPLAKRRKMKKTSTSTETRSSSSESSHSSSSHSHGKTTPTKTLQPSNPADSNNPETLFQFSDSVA

CaMKK2 = CaMKK2 (Homo sapiens, UniProt Q96RR4)
Sequence of CaMKK2 (Q96RR4 whole entry): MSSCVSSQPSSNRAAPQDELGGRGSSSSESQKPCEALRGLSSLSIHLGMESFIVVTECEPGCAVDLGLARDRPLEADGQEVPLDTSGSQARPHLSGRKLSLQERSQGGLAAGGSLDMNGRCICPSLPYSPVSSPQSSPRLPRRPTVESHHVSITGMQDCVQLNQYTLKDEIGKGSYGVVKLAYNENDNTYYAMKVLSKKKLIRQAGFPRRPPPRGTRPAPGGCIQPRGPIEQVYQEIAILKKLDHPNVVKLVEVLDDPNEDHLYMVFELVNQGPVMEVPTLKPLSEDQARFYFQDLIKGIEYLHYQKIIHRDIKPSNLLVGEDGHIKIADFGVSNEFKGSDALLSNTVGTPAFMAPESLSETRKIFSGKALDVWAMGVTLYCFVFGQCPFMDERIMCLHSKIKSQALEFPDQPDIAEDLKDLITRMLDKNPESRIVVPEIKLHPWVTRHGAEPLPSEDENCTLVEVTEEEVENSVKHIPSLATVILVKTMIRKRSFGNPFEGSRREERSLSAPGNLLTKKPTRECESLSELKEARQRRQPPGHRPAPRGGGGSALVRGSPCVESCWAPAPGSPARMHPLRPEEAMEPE

EphA7 = EphA7 (Homo sapiens, UniProt Q15375)
CK1d = CK1d (Homo sapiens, UniProt P48730)
Sequence of CK1d (P48730 whole entry): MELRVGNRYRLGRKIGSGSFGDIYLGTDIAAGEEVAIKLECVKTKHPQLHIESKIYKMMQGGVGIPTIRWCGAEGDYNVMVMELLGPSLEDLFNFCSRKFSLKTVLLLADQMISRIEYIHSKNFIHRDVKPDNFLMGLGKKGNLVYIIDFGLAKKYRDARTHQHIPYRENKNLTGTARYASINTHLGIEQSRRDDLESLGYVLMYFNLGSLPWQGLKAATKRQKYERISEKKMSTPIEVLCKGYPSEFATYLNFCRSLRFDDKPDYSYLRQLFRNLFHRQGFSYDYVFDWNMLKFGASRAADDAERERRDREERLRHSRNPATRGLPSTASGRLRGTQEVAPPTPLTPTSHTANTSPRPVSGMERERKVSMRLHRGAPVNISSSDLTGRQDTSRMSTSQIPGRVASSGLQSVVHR

DYRK1A = DYRK1A (Homo sapiens, UniProt Q13627)
Wnk1 = Wnk1 (Homo sapiens, UniProt Q9H4A3)
DAPK3 = DAPK3 (Homo sapiens, UniProt O43293)
PAK4 = PAK4 (Homo sapiens, UniProt O96013)

ΔTm at 10 µM (NQO2A; read-out: dTm 8): 0.5 °C | ΔTm at 10 µM (AKT3; read-out: dTm 8): 0 °C | ΔTm at 10 µM (EpHA4; read-out: dTm 8): 4.7 °C | ΔTm at 10 µM (FGFR1; read-out: dTm 8): 3.3 °C | ΔTm at 10 µM (CASK; read-out: dTm 8): -0.2 °C | ΔTm at 10 µM (FES; read-out: dTm 8): 2.5 °C | ΔTm at 10 µM (JNK3; read-out: dTm 8): 0.8 °C | ΔTm at 10 µM (BIKE; read-out: dTm 8): 1.1 °C | ΔTm at 10 µM (MSK1b; read-out: dTm 8): 2.1 °C | ΔTm at 10 µM (CaMKK2; read-out: dTm 8): 0.6 °C | ΔTm at 10 µM (EphA7; read-out: dTm 8): 0.5 °C | ΔTm at 10 µM (CK1d; read-out: dTm 8): 0 °C | ΔTm at 10 µM (DYRK1A; read-out: dTm 8): -0.5 °C | ΔTm at 10 µM (Wnk1; read-out: dTm 8): 0.3 °C | ΔTm at 10 µM (DAPK3; read-out: dTm 8): -0.1 °C
SMILES: CNc1ncc2cc(-c3cc(Cl)ccc3Cl)c(=O)n(CCCCN)c2n1 [compound 8, 8-(4-Aminobutyl)-6-(2,5-dichlorophenyl)-2-(methylamino)pyrido[2,3-d]pyrimidin-7(8H)-one]

ΔTm at 10 µM (NQO2A; read-out: dTm 11): 0.3 °C | ΔTm at 10 µM (AKT3; read-out: dTm 11): -0.1 °C | ΔTm at 10 µM (EpHA4; read-out: dTm 11): 4.3 °C | ΔTm at 10 µM (FGFR1; read-out: dTm 11): 3 °C | ΔTm at 10 µM (CASK; read-out: dTm 11): -0.3 °C | ΔTm at 10 µM (FES; read-out: dTm 11): 2.8 °C | ΔTm at 10 µM (JNK3; read-out: dTm 11): 1.1 °C | ΔTm at 10 µM (BIKE; read-out: dTm 11): 1 °C | ΔTm at 10 µM (MSK1b; read-out: dTm 11): 2 °C | ΔTm at 10 µM (CaMKK2; read-out: dTm 11): 0.6 °C | ΔTm at 10 µM (EphA7; read-out: dTm 11): 0.6 °C | ΔTm at 10 µM (CK1d; read-out: dTm 11): 0 °C | ΔTm at 10 µM (DYRK1A; read-out: dTm 11): -0.3 °C | ΔTm at 10 µM (PAK4; read-out: dTm 11): 1.1 °C | ΔTm at 10 µM (Wnk1; read-out: dTm 11): 0.4 °C | ΔTm at 10 µM (DAPK3; read-out: dTm 11): -0.2 °C
SMILES: CNc1ncc2cc(-c3cc(Br)ccc3Br)c(=O)n(CCCCN)c2n1 [compound 11, 8-(4-Aminobutyl)-6-(2,5-dibromophenyl)-2-(methylamino)pyrido[2,3-d]pyrimidin-7(8H)-one]

ΔTm at 10 µM (NQO2A; read-out: dTm 9): -0.3 °C | ΔTm at 10 µM (AKT3; read-out: dTm 9): 0 °C | ΔTm at 10 µM (EpHA4; read-out: dTm 9): 2.9 °C | ΔTm at 10 µM (FGFR1; read-out: dTm 9): 1.2 °C | ΔTm at 10 µM (CASK; read-out: dTm 9): -0.1 °C | ΔTm at 10 µM (FES; read-out: dTm 9): 1.4 °C | ΔTm at 10 µM (JNK3; read-out: dTm 9): 1.3 °C | ΔTm at 10 µM (BIKE; read-out: dTm 9): 0.6 °C | ΔTm at 10 µM (MSK1b; read-out: dTm 9): 0.9 °C | ΔTm at 10 µM (CaMKK2; read-out: dTm 9): 0.4 °C | ΔTm at 10 µM (EphA7; read-out: dTm 9): 0.6 °C | ΔTm at 10 µM (CK1d; read-out: dTm 9): 0 °C | ΔTm at 10 µM (DYRK1A; read-out: dTm 9): -0.5 °C | ΔTm at 10 µM (PAK4; read-out: dTm 9): 0.5 °C | ΔTm at 10 µM (Wnk1; read-out: dTm 9): 0.1 °C | ΔTm at 10 µM (DAPK3; read-out: dTm 9): -0.1 °C
SMILES: CNc1ncc2cc(-c3cc(C(F)(F)F)ccc3Cl)c(=O)n(CCCCN)c2n1 [compound 9, 8-(4-Aminobutyl)-6-(2-chloro-5-(trifluoromethyl)phenyl)-2-(methylamino)pyrido[2,3-d]pyrimidin-7(8H)-one]

ΔTm at 10 µM (NQO2A; read-out: dTm 10): 0.6 °C | ΔTm at 10 µM (AKT3; read-out: dTm 10): -0.1 °C | ΔTm at 10 µM (EpHA4; read-out: dTm 10): 5.1 °C | ΔTm at 10 µM (FGFR1; read-out: dTm 10): 2.9 °C | ΔTm at 10 µM (CASK; read-out: dTm 10): 0 °C | ΔTm at 10 µM (FES; read-out: dTm 10): 2.5 °C | ΔTm at 10 µM (JNK3; read-out: dTm 10): 1.3 °C | ΔTm at 10 µM (BIKE; read-out: dTm 10): 1.1 °C | ΔTm at 10 µM (MSK1b; read-out: dTm 10): 2.1 °C | ΔTm at 10 µM (CaMKK2; read-out: dTm 10): 0.7 °C | ΔTm at 10 µM (EphA7; read-out: dTm 10): 0.5 °C | ΔTm at 10 µM (CK1d; read-out: dTm 10): 0 °C | ΔTm at 10 µM (DYRK1A; read-out: dTm 10): -0.6 °C | ΔTm at 10 µM (PAK4; read-out: dTm 10): 1.3 °C | ΔTm at 10 µM (Wnk1; read-out: dTm 10): 0.3 °C | ΔTm at 10 µM (DAPK3; read-out: dTm 10): 0.1 °C
SMILES: CNc1ncc2cc(-c3cc(Cl)ccc3Br)c(=O)n(CCCCN)c2n1 [compound 10, 8-(4-Aminobutyl)-6-(2-bromo-5-chlorophenyl)-2-(methylamino)pyrido[2,3-d]pyrimidin-7(8H)-one]

ΔTm at 10 µM (NQO2A; read-out: dTm 12): 0.2 °C | ΔTm at 10 µM (AKT3; read-out: dTm 12): 1.2 °C | ΔTm at 10 µM (EpHA4; read-out: dTm 12): 1.6 °C | ΔTm at 10 µM (FGFR1; read-out: dTm 12): 0.6 °C | ΔTm at 10 µM (CASK; read-out: dTm 12): -0.2 °C | ΔTm at 10 µM (FES; read-out: dTm 12): 5.4 °C | ΔTm at 10 µM (JNK3; read-out: dTm 12): 0.4 °C | ΔTm at 10 µM (BIKE; read-out: dTm 12): 2.2 °C | ΔTm at 10 µM (MSK1b; read-out: dTm 12): 1 °C | ΔTm at 10 µM (CaMKK2; read-out: dTm 12): 0 °C | ΔTm at 10 µM (EphA7; read-out: dTm 12): 2.3 °C | ΔTm at 10 µM (CK1d; read-out: dTm 12): 0.6 °C | ΔTm at 10 µM (DYRK1A; read-out: dTm 12): 0.1 °C | ΔTm at 10 µM (PAK4; read-out: dTm 12): 1.8 °C | ΔTm at 10 µM (Wnk1; read-out: dTm 12): 1 °C | ΔTm at 10 µM (DAPK3; read-out: dTm 12): 0.3 °C
SMILES: CNc1ncc2cc(-c3cc(F)c(-c4cccc(C)n4)cc3F)c(=O)n(CCCCN)c2n1 [compound 12, 8-(4-Aminobutyl)-6-(2,5-difluoro-4-(6-methylpyridin-2-yl)phenyl)-2-(methylamino)pyrido[2,3-d]pyrimidin-7(8H)-one]
